From patent publication US7078499B2, “Nucleotide analogues comprising a reporter moiety and a polymerase enzyme blocking moiety” (GE Healthcare UK Limited, priority 2000, dated 2006)

How the values were obtained:
Format in all cases: biochemical
[1] = biological target: T1, T7 DNA polymerase (Escherichia phage T7, UniProt P00581); assay: Mesophilic DNA polymerase primer extension, T7; set-up: key to result of incorporation (termination / further chain extension): T: Incorporation results in termination; E: Incorporation permits further chain extension; T/E: Predominant product is primer extended by one base, but evidence of some further extension also observed; settings: DNA template, 37° C. for 20–40 minutes; for primer extended by at least one base within assay time (grade): TTP replaced entirely by test compound
T1 construct: purchased AP Biotech
T1 sequence (P0AA25 2-109): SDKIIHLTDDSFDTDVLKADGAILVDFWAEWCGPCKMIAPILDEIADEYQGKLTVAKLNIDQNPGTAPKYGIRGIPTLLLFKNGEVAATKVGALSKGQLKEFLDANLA
T1 sequence (P00581 whole entry): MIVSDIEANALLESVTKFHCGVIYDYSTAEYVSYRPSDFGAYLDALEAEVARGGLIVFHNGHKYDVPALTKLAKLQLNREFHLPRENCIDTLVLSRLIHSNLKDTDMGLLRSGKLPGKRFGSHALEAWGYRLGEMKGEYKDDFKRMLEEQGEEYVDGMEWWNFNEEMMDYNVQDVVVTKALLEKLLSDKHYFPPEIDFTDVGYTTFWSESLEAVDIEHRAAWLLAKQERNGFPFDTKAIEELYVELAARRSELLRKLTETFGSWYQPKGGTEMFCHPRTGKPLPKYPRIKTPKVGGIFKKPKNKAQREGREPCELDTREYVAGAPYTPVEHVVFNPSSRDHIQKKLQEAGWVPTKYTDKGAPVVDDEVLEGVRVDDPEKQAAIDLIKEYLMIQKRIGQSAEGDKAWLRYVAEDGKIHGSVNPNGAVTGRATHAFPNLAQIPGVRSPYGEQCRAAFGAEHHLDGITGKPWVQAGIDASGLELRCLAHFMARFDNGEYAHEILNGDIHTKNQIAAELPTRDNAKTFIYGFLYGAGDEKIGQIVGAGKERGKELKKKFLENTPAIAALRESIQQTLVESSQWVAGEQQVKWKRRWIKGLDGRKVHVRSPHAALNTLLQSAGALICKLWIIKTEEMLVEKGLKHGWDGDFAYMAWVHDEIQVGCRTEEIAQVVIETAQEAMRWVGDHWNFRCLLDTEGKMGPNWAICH
Description: (§1) DNA polymerase assays were performed using Sequence 1 as primer and Sequence 2 as template. • Sequence 1 5′[Cy3]TAACTCATTAACAGGATC 3′ • Sequence 2 5′AT TCGCGGTATTCTGGTATGAAGCTTTTAGATCCTGTTAATGAGTTA GTA3′
(§2) The template (Sequence 2) was designed such that the base (underlined) immediately adjacent to the 3′ end of the hybridised primer is complementary to the nucleotide test compound. Nucleotide test compounds were compounds (6) (4′-C-(glycylaminomethyl)thymidine triphosphate), (8) (4′-C-(N-trifluoroacetyaminomethyl)thymidine triphosphate) and (9) (4′-C-(aminomethyl)thymidine triphosphate) as described above.
(§3) Primer extension reactions were performed using the above primers in the presence of 40 to 80 μM of nucleotide triphosphates. Positive control reactions contained all four native nucleotide triphosphates. For the other reactions the TTP was replaced with either a 2:1 ratio of […] for the terminator control, or entirely by the test compound The enzymes were used at a final concentration of 0.175 units/μl and a magnesium ion concentration of 2.5 mM in buffers supplied by the manufacturer. The primer and template concentrations were 0.5 pmol/μl and 2 pmol/μl respectively.
(§4) Extension reactions preformed with mesophilic polymerases were carried out by mixing all the components of the reaction except the enzyme and heating to 70° C. for 5 min. After the reactions had cooled to room temperature 0.175 units of the enzyme were added and the reactions heated to 37° C. for 20–40 minutes. The following enzymes were used: T7 DNA polymerase (T7); Sequenase 2™ (Seq); Klenow fragment of DNA polymerase 1 (Klen); phi-29 DNA polymerase (Phi-29); T4 DNA polymerase (T4) (all from AP Biotech) and Bst DNA polymerase (Bst) (Cambio Ltd).
(§5) The reactions were stopped by adding a 0.5 volume aliquot of 80% formamide containing 0.1% (w/v) bromophenol blue and 0.1% (w/v) cresol blue. The reaction products were separated by denaturing gel electrophoresis at a constant power of 45 W on 16% polyacrylamide gels containing 50% urea.
(§6) Gels were scanned for Cy3 fluorescence on a Molecular Dynamics Fluorimager and the data analysed using Molecular Dynamics ImageQuant 5 software.
(§7) The incorporation of a test nucleotide triphosphate results in the appearance on a polyacrylamide gel of a single band corresponding to a single base extension product. If, however, the enzyme adds additional bases then further bands would be observed that corresponded to either the full-length product or positions of other complementary bases in the template.

[2] = system: Thermosequenase II; assay: Thermostable DNA polymerase primer extension, TSII; set-up: key to result of incorporation (termination / further chain extension): T: Incorporation results in termination; E: Incorporation permits further chain extension; T/E: Predominant product is primer extended by one base, but evidence of some further extension also observed; settings: DNA template, 45° C. for 20–40 minutes; for primer extended by at least one base within assay time (grade): TTP replaced entirely by test compound
Description: as §1, §2, §3
Extension reactions with thermophilic enzymes were performed by initially denaturing the fully assembled reactions at 70° C. for 5 min. followed by 45° C. for 20–40 minutes. The following enzymes were used: Taq DNA polymerase (Taq); Thermosequenase (TS); Thermosequenase II (TSII); Thermosequenase E (TSE), Tfl DNA polymerase (Tfl); Tth DNA polymerase (Tth), deltaTts DNA polymerase (deltaTts), deltaTts D DNA polymerase (dettaTTSD) (all from APBiotech); Pfu DNA polymerase (Pfu) (Stratagene Ltd); Vent™ DNA polymerase (Vent) (New England Biolabs).
as §5, §6, §7

[3] = biological target: T2, Klenow fragment of DNA polymerase 1 (Escherichia coli, UniProt P00582); assay: Mesophilic DNA polymerase primer extension, Klen; set-up: key: −: No extension within assay time; +/−: up to 25% of primer extended by at least one base within assay time; +: up to 50% of primer extended by at least one base within assay time; ++: up to 75% of primer extended by at least one base within assay time; +++: essentially all primer extended by at least one base within assay time; settings: DNA template, TTP replaced entirely by test compound, 37° C. for 20–40 minutes
T2 construct: Klenow fragment of DNA polymerase 1 (Klen); purchased AP Biotech
T2 sequence (P00582 324-928): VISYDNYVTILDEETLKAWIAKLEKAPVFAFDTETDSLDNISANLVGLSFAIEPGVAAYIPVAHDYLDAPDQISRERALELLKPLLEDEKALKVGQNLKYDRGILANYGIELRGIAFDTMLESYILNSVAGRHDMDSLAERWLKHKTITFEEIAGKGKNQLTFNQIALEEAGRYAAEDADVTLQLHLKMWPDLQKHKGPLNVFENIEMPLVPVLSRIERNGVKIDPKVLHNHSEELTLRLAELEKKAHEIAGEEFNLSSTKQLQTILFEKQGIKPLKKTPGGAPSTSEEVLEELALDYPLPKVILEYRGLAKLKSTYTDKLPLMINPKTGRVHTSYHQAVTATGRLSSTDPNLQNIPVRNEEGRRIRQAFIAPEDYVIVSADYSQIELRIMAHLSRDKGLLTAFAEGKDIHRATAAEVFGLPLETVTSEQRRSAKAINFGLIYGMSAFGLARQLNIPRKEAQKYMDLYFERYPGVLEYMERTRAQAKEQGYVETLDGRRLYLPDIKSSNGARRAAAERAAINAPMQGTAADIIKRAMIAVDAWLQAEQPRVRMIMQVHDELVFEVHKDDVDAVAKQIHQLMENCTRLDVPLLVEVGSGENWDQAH
Description: as §1, §2, §3, §4
The reactions were stopped by adding a 0.5 volume aliquot of 80% formamide containing 0.1% (w/v) bromophenol blue and 0.1% (w/v) cresol blue. […]
Gels were scanned for Cy3 fluorescence on a Molecular Dynamics Fluorimager and the data analysed using Molecular Dynamics ImageQuant 5 software. […]

[4] = biological target: T3, MuLV RT (Moloney murine leukemia virus, UniProt P03355); assay: Mesophilic reverse transcriptase reaction, MuLV RT; set-up: key to result of incorporation (termination / further chain extension): T: Incorporation results in termination; E: Incorporation permits further chain extension; T/E: Predominant product is primer extended by one base, but evidence of some further extension also observed; settings: RNA template, final enzyme concentration of 4 units/μl
T3 construct: MuLv Reverse transcriptase or HIV reverse transcriptase; purchased APBiotech
Description: as §1, §2, §3, §4
Reverse transcriptase reactions were performed essentially as described above for thermophilic and mesophilic enzymes. The template for these reactions was the RNA equivalent of sequence 2. All the thermophilic enzymes were assayed in Tth reaction buffer (Cambio Ltd, Cambridge UK) containing 2.5 mM Manganese ions. The following enzymes were used: Thermosequenase (TS1); Thermosequenase II (TSII); delta Tts DNA polymerase (deltaTts); delta Tts D DNA polymerase (deltaTtsD) (all from APBiotech); Retrotherm reverse transcriptase (Retroth) (Cambio Ltd); Tth DNA polymerase (Tth) (Cambio Ltd.).
Mesophilic reverse transcriptases (AMV RT; MuLV RT; SAV RT and HIV RT all from APBiotech) were assayed in their respective buffers with a final enzyme concentration of 4 units/μl.
as §5, §6, §7

| Compound | result of incorporation (termination / further chain extension) [1] | primer extended by at least one base within assay time (grade) [1] | result of incorporation (termination / further chain extension) [2] | primer extended by at least one base within assay time (grade) [2] | primer extended by at least one base within assay time (grade) [3] | primer extended by at least one base within assay time (grade) [4] | result of incorporation (termination / further chain extension) [4] |
| --- | --- | --- | --- | --- | --- | --- | --- |
| 4′-C-(Aminomethyl)thymidine triphosphate [compound (9)] | T/E | +/− (up to 25% of primer extended by at least one base within assay time) | T | + (up to 50% of primer extended by at least one base within assay time) | − | ++ (up to 75% of primer extended by at least one base within assay time) | E |
| 4′-C-(Glycylaminomethyl)thymidine triphosphate [compound (6)] | T/E | +/− (up to 25% of primer extended by at least one base within assay time) | T | + (up to 50% of primer extended by at least one base within assay time) | − | ++ (up to 75% of primer extended by at least one base within assay time) | E |
| Cc1cn([C@H]2C[C@H](O)[C@@](CNC(=O)C(F)(F)F)(COP(=O)(O)OP(=O)(O)OP(=O)(O)O)O2)c(=O)[nH]c1=O [compound (8), 4′-C-(N-trifluoroacetylaminomethyl)thymidine triphosphate] | T/E | +/− (up to 25% of primer extended by at least one base within assay time) | T | + (up to 50% of primer extended by at least one base within assay time) | − | ++ (up to 75% of primer extended by at least one base within assay time) | E |
